Each structure is given as a SMILES string.

The results in this text go back to patent US11059795B2, “Androgen receptor modulators and methods for their use” (ESSA Pharma, Inc., priority 2018, dated 2021).

Holding throughout (type): in vitro ADME
The nature of data set [1]: Hepatocyte stability assay, rat hepatocytes. Conditions: cryopreserved hepatocytes, read-out: Hepatocytes T½ (min) Rat. The text has this:
(§1) The […] of in vitro intrinsic clearance (Clint) for drug candidates in the early discovery stage is common practice in the pharmaceutical industry. The Clint values of drug candidates can help to confirm whether metabolism is the main clearance pathway when it is compared with the total body clearance in vivo. Hepatocytes are among the routinely used in vitro systems for measuring clearance. Hepatocytes have been reported to retain most of the phase I and phase II metabolic activities, and therefore, it is a useful tool to estimate the intrinsic clearance for potential drug candidates.
(§2) Metabolic stability of testing compound were be evaluated using human and mouse hepatocytes and can also be use rat, mouse, or other animal hepatocytes to predict intrinsic clearance. Cryopreserved hepatocytes were removed from the liquid nitrogen tank and thawed in a 37° C. water bath. As soon as the cells pulled away from the vial wall, they were decanted into 48 ml of warm HT medium. Cells were centrifuged for four minutes at 420 rpm (50 g). After removing the supernatant, pellet was re-suspended in warm DMEM medium. Cell density was counted by a hemacytometer.
(§3) The assay was carried out in 96-well microtiter plates. Compounds were incubated for 0, 60, 120, and 180 minutes at 37° C. with hepatocytes. Reaction mixtures (50 μL) contained a final concentration of 1 μM test compound, 0.5 million cells/mL hepatocytes in the DMEM medium. At each of the time points (for example, 0, 1, 2, and 3 hours), 200 μL of quench solution (100% acetonitrile with 0.1% formic acid) with internal standard was transferred to each well. Midazolam was included as a positive control to verify assay performance. Plates were sealed and centrifuged at 4° C. for 15 minutes at 4000 rpm. The supernatant is transferred to fresh plates for LC/MS/MS analysis.
(§4) Summarized conditions (customizable): [Compound]=[…], Positive control: midazolam and/or naloxone, [Hepatocyte]=0.5 million cells/Ml, time=0, 60, 120, and 180 min, t=37° C.
(§5) All samples were analyzed on LC/MS/MS using an AB Sciex API 4000 instrument, coupled to a Shimadzu LC-20AD LC Pump system. Analytical samples were separated using a Waters Atlantis T3 dC18 reverse phase HPLC column (20 mm×2.1 mm) at a flow rate of 0.5 mL/min. The mobile phase consisted of 0.1% formic acid in water (solvent A) and 0.1% formic acid in 100% acetonitrile (solvent B).
(§6) The extent of metabolism was calculated as the disappearance of the test compound, compared to the 0-min control reaction incubations. Initial rates were calculated for the compound concentration and used to determine t½ values and subsequently, the intrinsic clearance, Clint. Clint=(0.693)(1/t½(min))(mL incubation/million cells)

A short description of data set [2]: Hepatocyte stability assay, human hepatocytes. The following applies: cryopreserved hepatocytes, read-out: Hepatocytes T½ (min) Human.
Description: as §1, §2, §3, §4, §5, §6

Data set [3] is described as follows: Microsomal stability assay, rat liver microsomes. Conditions: pH 7.4, read-out: Liver microsome T½ (min) Rat. How it is done:
Microsomal stability assay is a widely used in vitro model to characterize the metabolic conversion by phase I enzymes, such as cytochrome P450 (CYP) enzymes. Since metabolism is known to be highly variable in different species, microsomal stability assay is commonly run in multiple species. Metabolic stability of testing compound can be evaluated using human, rat, mouse, or other animal liver or intestine microsomes to predict intrinsic clearance.
The assay was carried out in 96-well microtiter plates at 37° C. Reaction mixtures (25 μL) contained a final concentration of 1 μM test compound, 0.5 mg/mL liver microsomes protein, and 1 mM NADPH and/or 1 mM UDPGA (with alamethicin) in 100 mM potassium phosphate, pH 7.4 buffer with 3 mM MgCl2. The incubation was done with N=1, but duplicate incubation at each time point can be prepared if necessary. At each of the time points (for example, 0, 15, 30, and 60 minutes), 150 μL of quench solution (100% acetonitrile with 0.1% formic acid) with internal standard was transferred to each well. Besides the zero minute controls, mixtures containing the same components except the NADPH can also be prepared as the negative control. Verapamil was included as a positive control to verify assay performance. Plates were sealed, vortexed, and centrifuged at 4° C. for 15 minutes at 4000 rpm. The supernatant is transferred to fresh plates for LC/MS/MS analysis.
Summarized conditions: [Compound]=[…], [LM]=0.5 mg/mL, [NADPH]=1 mM and/or [UDPGA]=1 mM, Buffer=100 mM Potassium Phosphate, pH 7.4 with 3 mM MgCl2, Time=0, 15, 30, and 60 min, and Temperature=37° C.
as §5
The extent of metabolism is calculated as the disappearance of the test compound, compared to the 0-min time incubation. Initial rates are calculated for the compound concentration and used to determine half-life (t½) values and subsequently, the intrinsic clearance (Clint). Clint=(0.693)(1/t½ (min))(g of liver/kg of body weight)(mL incubation/mg of microsomal protein)(45 mg of microsomal protein/g of liver weight)
(Liver microsomes are a subcellular fraction often used to study metabolism.)

`CC(C)(c1ccc(OCc2ocnc2S(C)(=O)=O)cc1)c1cc(Cl)c(OCCCl)c(C#N)c1` [Compound A28, 3-chloro-2-(2-chloroethoxy)-5-(2-(4-((4-(methylsulfonyl)oxazol-5-yl)methoxy)phenyl)propan-2-yl)benzonitrile]: the results for the half-life at 1 μM in data set [1], in data set [2] and in data set [3] were 31 min, over 360 min and 23 min, respectively.
Take `CC(C)(c1ccc(OCc2coc(NS(C)(=O)=O)n2)cc1)c1cc(Cl)c(OCCCl)c(Cl)c1` [Compound A38, N-(4-((4-(2-(3,5-dichloro-4-(2-chloroethoxy)phenyl)propan-2-yl)phenoxy)methyl)oxazol-2-yl)methanesulfonamide]: the half-life at 1 μM is 56 min in data set [1], over 360 min in data set [2] and 12 min in data set [3].
For `CC(C)(c1ccc(OCc2ccnc(NS(C)(=O)=O)n2)cc1)c1cc(Cl)c(OCCCl)c(Cl)c1` [Compound A74, N-(4-((4-(2-(3,5-dichloro-4-(2-chloroethoxy)phenyl)propan-2-yl)phenoxy)methyl)pyrimidin-2-yl)methanesulfonamide] the same measures were over 360 min, over 360 min and over 120 min.
For `CC(C)(c1ccc(OCc2ncc(S(C)(=O)=O)s2)cc1)c1cc(Cl)c(OCCCl)c(C#N)c1` [Compound A93, 3-chloro-2-(2-chloroethoxy)-5-(2-(4-((5-(methylsulfonyl)thiazol-2-yl)methoxy)phenyl)propan-2-yl)benzonitrile], the half-life at 1 μM in data set [1] was 94 min; in data set [2], over 360 min; in data set [3], 83 min.
`CC(C)(c1ccc(OC[C@H](O)CNS(C)(=O)=O)cc1)c1cc(Cl)c(OC[C@H](O)CCl)c(Cl)c1` [X, reference compound]: the half-life at 1 μM in data set [2] is over 360 min.
`CC(C)(c1ccc(OCc2ccnc(NS(C)(=O)=O)n2)cc1)c1cc(Cl)c(OCCCl)c(C#N)c1` [Compound A109, N-(4-((4-(2-(3-chloro-4-(2-chloroethoxy)-5-cyanophenyl)propan-2-yl)phenoxy)methyl)pyrimidin-2-yl)methanesulfonamide]: the half-life at 1 μM is over 360 min in data set [1], over 360 min in data set [2] and over 120 min in data set [3].
`CC(C)(c1ccc(OCc2ocnc2S(C)(=O)=O)cc1)c1cc(Cl)c(OCCCl)c(Cl)c1` [Compound A13, 5-((4-(2-(3,5-dichloro-4-(2-chloroethoxy)phenyl)propan-2-yl)phenoxy)methyl)-4-(methylsulfonyl)oxazole]: the results for the half-life at 1 μM in data set [1], in data set [2] and in data set [3] were 75 min, 290 min and 64 min, respectively.
